The nature of data set [1]: CNS symptoms and neurotoxicity (Fluoro-Jade C, ATF3) in dog toxicity studies. In kind it is in vivo. The method, then:
In order to evaluate the potential neurotoxic effect of HM06-01, Fluoro-Jade C staining was performed on nine different brain areas (i.e., frontal pole, optic chiasm, infundibulum, mammillary bodies, base of third cranial nerve, anterior portion of pons and occipital pole section, cerebellum and medulla oblongata) of control dogs and dogs treated with 45 mg/kg BID HM06-01/TAS0953-01 (samples were taken from the 2-week toxicity study in dogs). In addition, ATF3 immunostaining was performed only on one control and one high dose dog treated with 45 mg/kg BID, in order to validate with an alternative method, the absence of any signs of neuronal degeneration or suffering.

The nature of data set [2]: ECG and blood pressure, 2-week toxicology GLP study. In kind it is in vivo, dog. The note with it: for mean arterial blood pressure: high dose females. The method, then:
The effect of HM06-01/TAS0953-01 on the ECG was investigated in the 2-week toxicology GLP study in dog as described above on Day 12. […] Heart rate and ECG were also not affected at all dose levels tested. […] At +8 h, arterial blood pressure had returned to control/baseline levels. Although this decrease was not statistically significant versus control, it was consistent and noticeable enough to be considered test item related. Nevertheless, since the extent of the change was limited and present only in the high dose females, and as this decrease in blood pressure had no negative impact on the animals' health, it was considered as non-adverse.

Data set [3] in a line: ECG, 4-week toxicology GLP study. In kind it is in vivo, dog. The method, then:
The effect of HM06-01/TAS0953-01 on the ECG was also investigated in the 4-week toxicology GLP study in dog as described above (and further described in Example 8) on week 1 (Day 2), week 4 (Day 23) and at the end of the 2-week recovery period. […] Whereas, on Day 23, no test item-related effects were noted on electrocardiographic parameters at 15 and 30 mg/kg BID in males. […] These electrocardiographic effects were no longer observed at the end of the 2 week recovery period. In addition, there were no abnormalities in electrocardiogram rhythm and waveforms on Day 2 and Day 23, and at the end of the recovery period.

Data set [4] can be described thus: Respiratory system, 4-week GLP study. In kind it is in vivo, rat. As to conditions: 25, 50 and 90 mg/kg BID, week 4. As for the experimental part:
The effect of HM06-01/TAS0953-01 on the respiratory system was also investigated after repeated administration with HM06-01/TAS0953-01 at 25, 50 and 90 mg/kg BID in the 4-week GLP study in rats further described in Example 8. Each group comprised 5 animals/group/sex.

The nature of data set [5]: 4-week GLP toxicity study in rat. It is filed as in vivo. As to conditions: for AUC(0-t): 50 mg/kg, 50 mg/kg BID. The method, then: In the 4-week GLP toxicity study in rat, animals received 0, 25, 50, and 90 mg/kg BID HM06-01/TAS0953-01 by oral gavage. In the high dose of 90 mg/kg BID group, test item-related mortality was observed: 3 females were found dead or were prematurely sacrificed for ethical reasons (severe clinical signs like decreased activity, abnormal respiratory rate and erected fur) from Day 10 to Day 14. At necropsy, discolorations of the lungs were generally observed, histologically correlated with adverse moderate to marked inflammatory changes in the lungs (alveolar/perivascular inflammation, macrophages aggregates, alveolar oedema/hemorrhage). One additional female (satellite) was found dead on Day 7 before dosing. However, in absence of clinical sign and of abnormality at necropsy, the relationship with the test item administration was considered doubtful.

A short description of data set [6]: 4-week GLP toxicity study in dog. In kind it is in vivo. As to conditions: for AUC(0-t): beagle, dog, in vivo, po, 30 mg/kg, 30 mg/kg BID. As for the experimental part:
In the 4-week GLP toxicity study in dog, animals received 0, 15, 30, and 45 mg/kg BID HM06-01/TAS0953-01 by oral gavage for 4 consecutive weeks followed by 2-week recovery period. In the high dose of 45 mg/kg BID group, test item-related mortality was observed: 2 males were prematurely sacrificed on Day 17 and Day 18 for ethical reasons (severe clinical signs associated with a significant body weight loss). The main cause of death was the mild to moderate multifocal subacute inflammation with alveolar or bronchioalveolar distribution, accompanied in one male with alveolar foreign body granulomas. In the other male, minimal pancreatic acinar vacuolation/apoptosis with prostatic acinar apoptosis were noted, for which the relationship with test item cannot be excluded.

Data set [7] can be described thus: Proconvulsant and anticonvulsant effects (pentylenetetrazole).
The subject of data set [8] is cell line from a patient who acquired resistance to RXDX-105 (KIF5B-RET fusion). Nature of the data set: Growth inhibition, RXDX-105-resistant cell line. It is filed as cell-based. The note with it: Homo sapiens; RXDX-105-resistant, KIF5B-RET; read-out: IC50 growth inhibition.

Consider `COCc1ccc(NC(=O)c2c(C#CCN3CCOCC3)n(C3(C)CC3)c3ncnc(N)c23)cc1` [HM06-01/TAS0953-01, 4-amino-N-(4-(methoxymethyl)phenyl)-7-(1-methylcyclopropyl)-6-(3-morpholinoprop-1-yn-1-yl)-7H-pyrrolo[2,3-d]pyrimidine-5-carboxamide], for which the “neuronal degeneration (Fluoro-Jade C, ATF3)” value in data set [1] (45 mg/kg BID, 2-week toxicity study, brain areas) is “no evidence of any neuronal degeneration”. Moreover, the “dose at which CNS symptoms were seen” value is ≥ 5 mg/kg BID in data set [1] (after the first administration in PK studies); ≥ 15 mg/kg BID in data set [1] (after the first daily dose, routine clinical observations, 2-week and 4-week toxicity studies). In addition, in data set [2] (15, 30 and 45 mg/kg BID, Day 12), the QT prolongation result was “No evidence of QT prolongation”. In addition, the “heart rate and ECG” value in data set [2] (all dose levels tested) is reported as “not affected”. In addition, the “mean arterial blood pressure” value in data set [2] (1 hour after the second daily dose, vehicle 115) stood at 93 mmHg; in data set [2] (5 hours after the first daily dosing, vehicle 127), 91 mmHg. For the same molecule, the ECG effects entry in data set [3] (Day 2, two hours after second daily dose, 15, 30 and 45 mg/kg BID) is “no effects”. Moreover, the “prolongation of Fridericia and Van der Water corrected QTc interval versus control” value in data set [3] (Day 23, females, 15, 30 and 45 mg/kg) is on record as “up to 8%”. Further, the heart rate entry in data set [3] (Day 23, males, 45 mg/kg BID) is given as “slight increase in heart rate”. The respiratory parameters entry in data set [4] is on record as “Neither toxicologically relevant effects in respiratory parameters were observed at week 4”. Further, the test item-related mortality in data set [5] (90 mg/kg BID, Day 10 to Day 14) stood at 3 females; in data set [6] (45 mg/kg BID, Day 17 and Day 18), 2 males. Further, the “decrease of body weight” value in data set [5] (90 mg/kg BID, both sexes) is 10%. Also, the “severely toxic dose 10 (STD 10)” value in data set [5] (4-week, oral gavage) was 50 mg/kg BID. The ophthalmology result in data set [5] (4 weeks oral BID) is listed as “no change in ophthalmology”. Moreover, in data set [5] (25-90 mg/kg BID), the “systemic exposure vs dose” value is on record as “approximately dose proportional manner”. Further, the body weight result in data set [5] (25 and 50 mg/kg BID) is reported as “no effect on body weight”; in data set [6] (low dose), “no effect on body weight”. In data set [5] (Day 28), the systemic accumulation result is “no systemic accumulation”. The “clinical chemistry, AST and ALT” value in data set [5] (both sexes) was “dose-dependent increase in AST and ALT”. For the same molecule, the “hematology, reticulocytes” value in data set [5] (both sexes) is recorded as “dose-dependent increase in reticulocytes”. The urine protein concentration entry in data set [5] (both sexes) is “dose-dependent increase in urine protein concentration”. Besides, the microscopic findings entry in data set [5] (end of dosing period) was “inflammatory microscopic findings were noted in the lungs”; in data set [6] (end of dosing period) it was “inflammatory microscopic findings in the lungs”. For the same molecule, the AUC(0-t) in data set [5] (female, rat, in vivo, po, Day 1, females) was 37200 ng·h/mL; in data set [5] (female, rat, in vivo, po, Day 28, females) it was 74300 ng·h/mL; in data set [5] (male, rat, in vivo, po, Day 1, males) it was 50300 ng·h/mL; in data set [5] (male, rat, in vivo, po, Day 28, males) it was 73000 ng·h/mL; in data set [6] (female, Day 1, females), 29200 ng·h/mL; in data set [6] (female, Day 28, females), 29100 ng·h/mL. Further, the AUC(0-t) in data set [6] (male, Day 1, males) came to 21400 ng·h/mL; in data set [6] (male, Day 28, males), 22300 ng·h/mL. Moreover, the Tmax amounted to 7 h in data set [5] (rat, in vivo, po, Day 1, after the first daily dose) and 1 h in data set [5] (rat, in vivo, po, Day 28, after the first daily dose). Moreover, the half-life in data set [5] (rat, in vivo, po, after the second daily dose, when estimable) lay within 2.03 to 3.67 h. The body weight loss in data set [6] (45 mg/kg BID, Male No. 642, day 17) was −12%; in data set [6] (45 mg/kg BID, Male No. 644, day 15), −25%. For the same molecule, the “highest non severely toxic dose (HNSTD)” value in data set [6] (4-week, oral gavage) came out at 30 mg/kg BID. Besides, the “ophthalmology, urinalysis, coagulation, clinical chemistry” value in data set [6] (4 weeks oral BID) was “no change in ophthalmology, urinalysis and on coagulation and clinical chemistry parameters”. In addition, the “hematology, total white blood cell count” value in data set [6] (both sexes) is listed as “increase in total white blood cell count”. Further, the “dose at which test item-related clinical signs were noted” value in data set [6] (from Day 1) was ≥ 15 mg/kg BID. Further, in data set [7] (30, 100 and 200 mg/kg oral, 1 hour prior to 25 mg/kg PTZ), the proconvulsant activity result is on record as “did not demonstrate any proconvulsant activity”. Also, the “anticonvulsant effect, total number of convulsions” value in data set [7] (100 and 200 mg/kg oral, pentylenetetrazole) was “decrease in the total number of convulsions”.
Regarding `COc1cc2nccc(Oc3ccc(NC(=O)C4(C(=O)Nc5ccc(F)cc5)CC4)cc3)c2cc1OC` [cabozantinib, reference compound], in data set [8], the IC50 turned out to be 340 nM.
